In US20040253665A1, “Novel peptide-producing enzyme, microbe producing the enzyme and method for dipeptide synthesis using them” (AJINOMOTO CO., INC., priority 2002, published 2004):
Like-named read-outs stand apart in the source and are kept apart here. Non-standard residues stand in square brackets, D forms with d. Residues, ends and D or L forms follow the SMILES beside them.

Experiments:
[1] = tested on: peptide-producing enzyme (Mono S fraction) from Empedobacter brevis strain FERM BP-8113; assay: Enzyme substrate specificity (1)-(10), (13), (14); format: biochemical; conditions: pH 9.0, 25° C., 3 hours
Excerpt: Ester specificity was examined in the case of using L-amino acid ester for the carboxy component. […] The amounts of L-Ala-L-Gln produced in this reaction are shown in Table 4 (HCl represents hydrochloride in Table 4). Peptide production was examined in the case of using L-alanine methyl ester for the carboxy component and using various L-amino acids for the amine component. […] (The “+” mark indicates those peptides for which production was confirmed but which were unable to be quantified due to the absence of a standard, while “tr” indicates a trace amount.) Peptide production was examined in the case of using various types of L-amino acid methyl esters for the carboxy component and using L-glutamine for the amine component. […] Peptide production was examined in the case of using various L-amino acid methyl esters for the carboxy component and various L-amino acids for the amine component. […] (The “tr” indicates a trace amount.) Furthermore, Tween-80 was added to the reaction system to a final concentration of 0.1% in the case of using L-Trp-OMe. (The “+” mark indicates those peptides for which production was confirmed but which were unable to be quantified due to the absence of a standard.) […] (The “tr” indicates a trace amount.) Peptide production was examined using various L-amino acid amides for the carboxy component, and various L-amino acids for the amine component. […] Peptide production was examined in the case of using various L-alanine methyl esters for the carboxy component and C-protected L-amino acids for the amine component. […] Peptide production was examined in the case of using various amino acid methyl esters for the carboxy component and methylamine for the amine component. […] Peptide production was examined in the case of using β-amino acid ester for the carboxy component or β-amino acid for the amine component. […] (The “tr” indicates a trace amount.) Oligopeptide production was examined in the case of using L-amino acid ester for the carboxy component and peptide for the amine component. […] Substrate specificity was additionally assessed using the same enzyme fraction as that used in Example 5. […] (A “+” mark indicates those for which production was confirmed but which were unable to be quantified due to the absence of a standard, while “tr” indicates a trace amount). Substrate specificity with respect to oligopeptide production was assessed using the same enzyme fraction as Example 26. […] (A “+” mark indicates those for which production was confirmed but which were unable to be quantified due to the absence of a standard, while “tr” indicates a trace amount). It should be noted that hydrochlorides were used for all of the carboxy components.

[2] = tested on: enzyme (SP-Sepharose HP fraction) derived from Sphingobacterium sp. strain FERM BP-8124; format: biochemical; design: key to Produced peptide (mM): +: those peptides for which production was confirmed but which were unable to be quantified due to the absence of a standard; a trace amount; conditions: carboxy component 100 mM, 0.33 units enzyme, pH 9.0, 25° C., 1.5 hours
Protocol: Substrate specificity was examined for enzyme derived from Sphingobacterium sp. strain FERM BP-8124 (Depositary institution: National Institute for Advanced Industrial Science and Technology, International Patent Organism Depositary, Address of depositary institution: Central. 6, 1-1-1 Higashi, Tsukuba City, Ibaraki Prefecture, Japan, International deposit date: Jul. 22, 2002). 100 μl of 100 mM borate buffer (pH 9.0) containing the various carboxy components at a final concentration of 100 mM and the various amine components at a final concentration of 150 mM shown in Tables 15-1 to 15-4, the SP-Sepharose HP fraction enzyme purified in Example 22 (addition of 0.33 units in the reaction liquid) and 10 mM EDTA were allowed to react at 25° C. for 1.5 hours. […] In addition, hydrochlorides were used for all carboxy components.
Substrate specificity with respect to oligopeptide production was examined for enzyme derived from Sphingobacterium sp. strain FERM BP-8124 (Depositary institution: National Institute for Advanced Industrial Science and Technology,.International Patent Organism Depositary, Address of depositary institution: Chuo Dai-6, 1-1 Higashi 1-Chome, Tsukuba-shi, Ibaraki-ken, Japan, International deposit date: Jul. 22, 2002). A 100 μl aliquot of 100 mM borate buffer (pH 9.0) containing the various carboxy components at a final concentration of 100 mM and the various amine components at a final concentration of 150 mM shown in Table 16, the SP-Sepharose HP fraction enzyme purified in Example 22 (addition of 0.33 units in the reaction liquid) and 10 mM EDTA were allowed to react for 1.5 hours at 25° C. Furthermore, hydrochloride salts were used for all carboxy components.

[3] = Table 15-1, amine component 150 mM
[4] = L-amino acid methyl ester hydrochloride 100 mM, L-amino acid 150 mM
[5] = Table 15-3, amine component 150 mM
[6] = 100 mM L-alanine methyl ester hydrochloride, L-amino acid 150 mM
[7] = L-amino acid ester 100 mM, amino acid or peptide amine component 150 mM
[8] = Table 16, oligopeptide production, amine component 150 mM
[9] = L-amino acid methyl ester hydrochloride 100 mM, 150 mM L-glutamine

C[C@@H](N)C(=O)N[C@@H](CO)C(=O)O [D-Ala-L-Ser] (H-[dA]-Ser-OH)
Produced peptide ([1]; L or D amino acid methyl ester hydrochloride 100 mM, L or D amino acid 150 mM): 20.3 mM | Produced peptide [2, 3]: 24.1 mM

CC[C@H](C)[C@H](N)C(=O)N[C@@H](Cc1ccccc1)C(=O)O [L-Ile-L-Phe] (H-Ile-Phe-OH)
Produced peptide [1, 4]: 5.2 mM | Produced peptide [2, 5]: 1.5 mM

NC(N)=NCCC[C@H](N)C(=O)N[C@@H](Cc1ccccc1)C(=O)O [L-Arg-L-Phe]
Produced peptide [1, 4]: 1.9 mM | Produced peptide (mM) [2, 5]: tr

CSCC[C@H](NC(=O)[C@@H](N)[C@@H](C)O)C(=O)O [L-Thr-L-Met] (H-Thr-Met-OH)
Produced peptide [1, 4]: 38.6 mM | Produced peptide [2, 5]: 28.9 mM

C[C@H](N)C(=O)N[C@@H](CC(N)=O)C(=O)O [L-Ala-L-Asn] (H-Ala-Asn-OH)
Produced peptide [1, 6]: 65.5 mM | Produced peptide [2, 3]: 52.3 mM

NCC(=O)N[C@@H](CCCN=C(N)N)C(=O)O [Gly-L-Arg] (H-Gly-Arg-OH)
Produced peptide [1, 4]: 25.5 mM | Produced peptide [2, 5]: 17.9 mM

L-Ala-L-Phe-L-Ala
Produced peptide [1, 7]: 49.7 mM | Produced peptide [2, 8]: 24.8 mM

CSCC[C@H](NC(=O)[C@@H](N)CCCN=C(N)N)C(=O)O [L-Arg-L-Met] (H-Arg-Met-OH)
Produced peptide [1, 4]: 0.7 mM | Produced peptide (mM) [2, 5]: tr

L-Ala-L-Ala-L-Ala-L-Ala
Produced peptide [1, 7]: 44.5 mM | Produced peptide [2, 8]: 30.1 mM

C[C@H](N)C(=O)N[C@@H](Cc1c[nH]c2ccccc12)C(=O)O [L-Ala-L-Trp] (H-Ala-Trp-OH)
Produced peptide [1, 6]: 53.9 mM | Produced peptide [2, 3]: 46.0 mM

N[C@@H](CO)C(=O)N[C@@H](Cc1ccccc1)C(=O)O [L-Ser-L-Phe]
Produced peptide [1, 4]: 20.3 mM | Produced peptide [2, 5]: 4.3 mM

NC(=O)CC[C@H](NC(=O)[C@@H](N)Cc1ccccc1)C(=O)O [L-Phe-L-Gln]
Produced peptide ([1]; L-amino acid amide hydrochloride 100 mM as carboxy component, L-amino acid 150 mM): 0.2 mM | Produced peptide [1, 9]: 0.9 mM | Produced peptide ([2]; Table 15-2, L-Gln 150 mM): 0.8 mM

CC(C)[C@H](N)C(=O)N[C@@H](CCC(N)=O)C(=O)O [L-Val-L-Gln] (H-Val-Gln-OH)
Produced peptide [1, 9]: 15.4 mM | Produced peptide ([2]; Table 15-2, L-Gln 150 mM): 8.2 mM

CSCC[C@H](NC(=O)[C@@H](N)CCSC)C(=O)O [L-Met-L-Met] (H-Met-Met-OH)
Produced peptide [1, 4]: 25.0 mM | Produced peptide [2, 5]: 28.4 mM

CSCC[C@H](N)C(=O)N[C@@H](CCC(N)=O)C(=O)O [L-Met-L-Gln] (H-Met-Gln-OH)
Produced peptide [1, 9]: 12.0 mM | Produced peptide ([2]; Table 15-2, L-Gln 150 mM): 32.6 mM

C[C@H](N)C(=O)N[C@@H](C)C(=O)O [L-Ala-L-Ala] (H-Ala-Ala-OH)
Produced peptide [1, 6]: 25.4 mM | Produced peptide [1, 7]: 28.7 mM | Produced peptide [2, 3]: 13.1 mM | Produced peptide [2, 8]: 25.6 mM

NCC(=O)N[C@@H](CCC(N)=O)C(=O)O [Gly-L-Gln] (H-Gly-Gln-OH)
Produced peptide [1, 9]: 54.7 mM | Produced peptide ([2]; Table 15-2, L-Gln 150 mM): 61.1 mM
